From ChEMBL document CHEMBL1201862, “PubChem BioAssay data set” (2004) come the findings set out here.

What all share (assay): DTP human tumour cell line panel, 48 h
Assay [1] concerns SW-620.
The test system of assay [2] is SK-MEL-28.
Assay [3] concerns K562.
Assay [4] deals with M14.
Assay [5] has as its system SN12C.
The subject of assay [6] is UACC-62.
Assay [7] relates to TK-10.
Assay [8] concerns HL-60.
Assay [9] relates to UACC-257.
The test system of assay [10] is CAKI-1.
Assay [11] deals with SF-539.
Assay [12] concerns 786-0.
Assay [13] concerns HOP-62.
The subject of assay [14] is RXF 393.
Assay [15] deals with COLO 205.
The subject of assay [16] is Malme-3M.
The subject of assay [17] is MOLT-4.
The test system of assay [18] is LOX IMVI.
In assay [19] the test system is PC-3.
The subject of assay [20] is SNB-75.

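In this assay, cells in 96-well plates receive the compound at five concentrations for 48 hours. Endpoints are linearly interpolated between the surrounding concentrations. Here, GI50 denotes the concentration required for 50% inhibition of growth.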 Active and inactive are the calls of the source. Rule as the data show it: active = GI50 up to about 1.1 µM and inactive = higher.

`C=C(CN(C)C)C(=O)c1ccc(Oc2ccccc2)cc1`: the GI50 in assay [1] was 1.31 µM (inactive); in assay [2], 7.66 µM (inactive); in assay [3] it was 1.26 µM (inactive); in assay [4], 1.76 µM (inactive); in assay [5], 5.37 µM (inactive); in assay [6], 4.39 µM (inactive). In addition, the GI50 in [7] is 5.86 µM (inactive); in assay [8] it was 0.695 µM (active); in assay [9], 8.36 µM (inactive); in [10] it was 2.54 µM (inactive); in assay [11], 3.13 µM (inactive); in assay [12], 2.15 µM (inactive). Further, the GI50 in [13] was 19.7 µM (inactive); in assay [14] it was 2.4 µM (inactive); in [15], 1.04 µM (active); in [16], 3.85 µM (inactive); in assay [17], 0.356 µM (active); in assay [18], 5.57 µM (inactive). Further, the GI50 in assay [19] is 3.98 µM (inactive); in assay [20], 15.9 µM (inactive).
Turning to `COc1ccc(CC2c3cc(Oc4cc(CC5c6cc(OC)c(OC)cc6CCN5C)ccc4O)c(OC)cc3CCN2C)cc1` (stereo not given), the GI50 in assay [1] is 1.66 µM (inactive); in assay [2], 7.8 µM (inactive); in assay [3] it was 1.36 µM (inactive); in [4], 5.64 µM (inactive); in [5], 8 µM (inactive); in assay [6] it was 8.65 µM (inactive). Also, the GI50 in assay [7] was 3.87 µM (inactive); in [8], 7.78 µM (inactive); in assay [9], 8.04 µM (inactive); in assay [10], 1.48 µM (inactive); in [11] it was 8.63 µM (inactive); in assay [12], 3.02 µM (inactive). The GI50 in assay [13] was 7.93 µM (inactive); in assay [14], 5.92 µM (inactive); in assay [15], 7.06 µM (inactive); in assay [16], 10.1 µM (inactive); in assay [17] it was 5.52 µM (inactive); in [18], 2.55 µM (inactive). The GI50 in assay [19] is 5.47 µM (inactive); in [20], 8.45 µM (inactive).
For `c1ccc2c(OCC3CO3)ccc(OCC3CO3)c2c1` (stereo not given), the GI50 in [1] is 1.26 µM (inactive); in assay [2], 9.98 µM (inactive); in assay [3] it was 2 µM (inactive); in assay [4], 3.38 µM (inactive); in assay [5], 2.22 µM (inactive); in [6] it was 3.06 µM (inactive). Besides, the GI50 in assay [7] is 13.5 µM (inactive); in assay [8] it was 0.321 µM (active); in assay [9], 7.14 µM (inactive); in assay [10], 1.74 µM (inactive); in [11], 2.21 µM (inactive); in [12] it was 2.11 µM (inactive). Further, the GI50 is 3.03 µM (inactive) in assay [13]; 2.63 µM (inactive) in assay [14]; 10.6 µM (inactive) in assay [15]; 7.13 µM (inactive) in assay [16]; 0.352 µM (active) in [17]; 0.515 µM (active) in assay [18]. Besides, the values for the GI50 in [19] and in [20] were 4.76 µM (inactive) and 14.6 µM (inactive), respectively.
Take `O=C(c1ccc(Cl)c(Cl)c1)N(C(=O)N1CCN(c2ccccc2)CC1)S(=O)(=O)c1ccccc1`: the GI50 is 36.1 µM (inactive) in assay [1]; > 100 µM (inactive) in assay [2]; 22.9 µM (inactive) in assay [3]; 37.2 µM (inactive) in assay [4]; 36.1 µM (inactive) in [5]; 32.8 µM (inactive) in assay [6]. Besides, the GI50 in [7] was > 100 µM (inactive); in assay [8], > 100 µM (inactive); in assay [9], > 100 µM (inactive); in assay [10], 55.6 µM (inactive); in [11] it was 41.2 µM (inactive); in assay [12], 35.6 µM (inactive). The GI50 in assay [13] was 31.6 µM (inactive); in assay [14], > 100 µM (inactive); in assay [15], > 100 µM (inactive); in assay [16] it was 60 µM (inactive); in [17] it was 12.9 µM (inactive); in assay [18] it was 19.9 µM (inactive). The GI50 is 32 µM (inactive) in [19] and 91.4 µM (inactive) in assay [20].
On to `CN(Cc1ccccc1)Cn1ccnc1`, for which the GI50 is > 100 µM (inactive) in assay [1]; 34.1 µM (inactive) in [2]; 34.7 µM (inactive) in assay [3]; 20.5 µM (inactive) in [4]; 95.1 µM (inactive) in [5]; > 100 µM (inactive) in [6]. Besides, the GI50 in [7] was > 100 µM (inactive); in assay [8] it was > 38.5 µM (inactive); in [9] it was 22.4 µM (inactive); in assay [10], > 100 µM (inactive); in assay [11], > 100 µM (inactive); in assay [12], 72.9 µM (inactive). The GI50 in assay [13] is > 100 µM (inactive); in [14] it was > 100 µM (inactive); in assay [15], 33.5 µM (inactive); in assay [16] it was 24.9 µM (inactive); in [17], 46.5 µM (inactive); in [18], > 88.3 µM (inactive). Moreover, the results for the GI50 in assay [19] and in assay [20] were > 75.9 µM (inactive) and > 100 µM (inactive), respectively.
As to `COc1c(-c2nc3ccc(N4CCN(C)CC4)cc3[nH]2)cc(OC)c2[nH]c(CO)nc12`, the GI50 in [1] is 74.8 µM (inactive); in assay [2], > 100 µM (inactive); in assay [3], > 100 µM (inactive); in assay [4], > 100 µM (inactive); in assay [5], 74.6 µM (inactive); in [6], > 100 µM (inactive). Besides, the GI50 in assay [7] was > 100 µM (inactive); in assay [8], 14.1 µM (inactive); in assay [9] it was > 100 µM (inactive); in assay [10], > 100 µM (inactive); in assay [11], > 100 µM (inactive); in assay [12], 90.8 µM (inactive). The GI50 was 92.9 µM (inactive) in assay [13]; > 100 µM (inactive) in [14]; 82.4 µM (inactive) in assay [15]; > 100 µM (inactive) in assay [16]; > 100 µM (inactive) in [17]; 88.5 µM (inactive) in assay [18]. The GI50 in assay [19] is > 100 µM (inactive); in assay [20], 48.3 µM (inactive).
As for `O=C(/C=C1\C[C@H]2C=Nc3ccccc3C(=O)N2C1)NCCCCNC(=O)/C=C1\C[C@H]2C=Nc3ccccc3C(=O)N2C1`, the GI50 in assay [1] was 2.55 µM (inactive); in assay [2], 15.8 µM (inactive); in [3] it was 3.11 µM (inactive); in assay [4], 6.12 µM (inactive); in assay [5], 5.05 µM (inactive); in assay [6] it was 15.3 µM (inactive). Moreover, the GI50 in assay [7] was 10.4 µM (inactive); in [8], 3.3 µM (inactive); in assay [9] it was 10.3 µM (inactive); in assay [10], 2.77 µM (inactive); in assay [11], 14.9 µM (inactive); in assay [12], 1.75 µM (inactive). In addition, the GI50 in assay [13] is 17.2 µM (inactive); in assay [14] it was 6.15 µM (inactive); in assay [15], 4.21 µM (inactive); in assay [16], 6.81 µM (inactive); in [17], 2.91 µM (inactive); in assay [18], 1.97 µM (inactive). For the same compound, the GI50 in assay [19] is 14.4 µM (inactive); in assay [20], 16.3 µM (inactive).

By GI50 is commonly meant the concentration at which growth is held to half of that of the control.
